pEC50: −log10 of the molar value. Like-named read-outs stand apart in the source and are kept apart here. Numbered stars: 1 amine (or outer) side, 2 acyl side, 3 side chain; on linkers, the order of the positions; unused ones are H or OH. Square brackets hold non-standard residues; d marks the D form. Peptide text beside a SMILES is read from it. X1 = N=C(N)NCCC[C@H](N[*:1])C(=O)c1nc2ccc(C(=O)[*:2])cc2s1
Key:
[1] = tested on: VSV-SARS-CoV-2
[2] = tested on: VSV-SARS-CoV-2; test: microbe, parasite or virus in culture; conditions: Vesicular stomatitis virus, Calu-3, in Homo sapiens, read-out: VSV SARS CoV-2 Cell Entry EC50 (nM)

Work on `CC(=O)N[C@H]1CC(=O)NCCCC[C@@H](C(=O)N[C@@H](CCCNC(=N)N)C(=O)c2nc3ccccc3s2)NC(=O)[C@H](CC(C)C)NC1=O` [VD2173, Ac-Cyclo(DLK)—R-ketobenzothiazole] yielded a pEC50 ([1]; VSV-) of 6.71.
`CC(=O)N[C@H]1Cc2ccc(cc2)OCCCC[C@@H](C(=O)N[C@@H](CCCNC(=N)N)C(=O)c2nc3ccccc3s2)NC(=O)[C@@H](Cc2c[nH]c3ccccc23)NC1=O` [VD4162B, N-[(S)-1-[(1,3-benzothiazol-2-yl)carbonyl]-4-guanidinobutyl]-(7S,10R,13S)-13-acetylamino-10-[(3-indolyl)methyl]-9,12-dioxo-2-oxa-8,11-diazabicyclo[13.2.2]nonadeca-1(17),15,18-triene-7-carboxamide] was tested, and the EC50 [2] was 2060 nM.
Work on `CC(=O)N[C@H]1Cc2ccc(cc2)Oc2cccc(c2)C[C@@H](C(=O)N[C@@H](CCCNC(=N)N)C(=O)c2nc3ccccc3s2)NC(=O)[C@H](CC(C)C)NC1=O` [VD5064B, N-[(S)-1-[(1,3-benzothiazol-2-yl)carbonyl]-4-guanidinobutyl]-(9S,12S,15S)-15-acetylamino-12-isobutyl-11,14-dioxo-2-oxa-10,13-diazatricyclo[15.2.2.1^3,^7]docosa-1(19),3,5,7(22),17,20-hexaene-9-carboxamide] yielded an EC50 [2] of 8370 nM.
`CC(=O)N[C@@H](CO)C(=O)N[C@@H](CCCCN)C(=O)N[C@@H](Cc1ccccc1)C(=O)N[C@@H](CCCNC(=N)N)C(=O)c1nccs1` [ZFH6095, N-[(S)-1-[N-(S)-4-guanidino-1-[(1,3-thiazol-2-yl)carbonyl]butylcarbamoyl]-2-phenylethyl](S)-2-[(S)-2-acetylamino-3-hydroxypropionylamino]-6-aminohexanamide] showed an EC50 [2] of 1160 nM.
In the case of `CC(=O)N[C@@H](CCCCN)C(=O)N[C@@H](CCC(N)=O)C(=O)N[C@@H](Cc1ccccc1)C(=O)N[C@@H](CCCNC(=N)N)C(=O)c1nccs1` [ZFH6101, N-[(S)-1-[N-(S)-4-guanidino-1-[(1,3-thiazol-2-yl)carbonyl]butylcarbamoyl]-2-phenylethyl](S)-2-[(S)-1-acetylamino-5-aminopentylcarbonylamino] glutaramide], the EC50 [2] was 262 nM.
With `CC(=O)N[C@@H](CO)C(=O)N[C@@H](CCC(N)=O)C(=O)N[C@@H](CC(C)C)C(=O)N[C@@H](CCCNC(=N)N)C(=O)c1nccs1` [ZFH6138, N-[(S)-3-methyl-1-[N-(S)-4-guanidino-1-[(1,3-thiazol-2-yl)carbonyl]butylcarbamoyl]butyl](S)-2-[(S)-2-acetylamino-3-hydroxypropionylamino]glutaramide] the EC50 [2] was 1320 nM.
In the case of `CC(=O)N[C@@H](CC(C)C)C(=O)N[C@@H](CC(C)C)C(=O)N[C@@H](CCCNC(=N)N)C(=O)c1nccs1` [ZFH6201-1, N-[(S)-4-guanidino-1-[(1,3-thiazol-2-yl)carbonyl]butyl](S)-2-[(S)-2-acetylamino-4-methylvalerylamino]-4-methylvaleramide], the EC50 [2] was 1840 nM.
`CC(=O)N[C@@H](CCCCN)C(=O)N[C@@H](CCC(N)=O)C(=O)N[C@@H](CC(C)C)C(=O)N[C@@H](CCCNC(=N)N)C(=O)c1nc2ccccc2s1` [ZFH7006, N-[(S)-3-methyl-1-[N-(S)-1-[(1,3-benzothiazol-2-yl)carbonyl]-4-guanidinobutylcarbamoyl]butyl](S)-2-[(S)-1-acetylamino-5-aminopentylcarbonyl-amino]glutaramide] was tested, and the pEC50 ([1]; read-out: VSV SARS CoV-2 Cell Entry EC50) was 6.19 and the EC50 [2] was 572 nM.
In the case of `CC(=O)N[C@@H](CO)C(=O)N[C@@H](CCCCN)C(=O)N[C@@H](CC(C)C)C(=O)N[C@@H](CCCNC(=N)N)C(=O)c1nc2ccccc2s1` [ZFH7053, N-[(S)-3-methyl-1-[N-(S)-1-[(1,3-benzothiazol-2-yl)carbonyl]-4-guanidinobutylcarbamoyl]butyl](S)-2-[(S)-2-acetylamino-3-hydroxypropionylamino]-6-aminohexanamide], the EC50 [2] was 4270 nM.
`CC(=O)N[C@@H](Cc1ccccc1)C(=O)N[C@@H](CC(C)C)C(=O)N[C@@H](Cc1ccccc1)C(=O)N[C@@H](CCCNC(=N)N)C(=O)c1nc2ccccc2s1` [ZFH7063, N-[(S)-1-[N-(S)-1-[(1,3-benzothiazol-2-yl)carbonyl]-4-guanidinobutylcarbamoyl]-2-phenylethyl](S)-2-[(S)-2-acetylamino-3-phenylpropionylamino]-4-methylvaleramide] gave an EC50 [2] of 101 nM.
`CC(=O)N[C@@H](CO)C(=O)N[C@@H](CCCCN)C(=O)N[C@@H](CC(C)C)C(=O)N[C@@H](CCCNC(=N)N)C(=O)c1nc2ccc(C(=O)N[C@H](C(N)=O)C(C)C)cc2s1` [ZFH7116, N-[(S)-1-carbamoyl-2-methylpropyl]-2-[(S)-2-[(S)-2-[(S)-1-[(S)-2-acetylamino-3-hydroxypropionylamino]-5-aminopentylcarbonyl-amino]-4-methylvalerylamino]-5-guanidinovaleryl]-1,3-benzothiazole-6-carboxamide] (Ac-SKL[X1]V-NH2) was tested, and the EC50 [2] was 489 nM.
